Measurements published in patent US11986532B2 (Arvinas Operations, Inc., priority 2021, dated 2024).
Where two headings read alike, the source gives them in different places.

Biological target: T1, BCL6 (Homo sapiens, UniProt P41182)
T1 construct: endogenous in cells; host or cells: T47D breast cancer epithelial cells
Assay: Immunofluorescence protocol for high content imaging of BCL6 (degradation) in T47D cells, 3 days compound treatment
Format: cell-based
Details: for Dmax: read-out: Mean Dmax (%)** category; for DC50: read-out: Mean DC50 (nM)* category
Method in brief: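 T47D cells in RPMI1640-10% FBS were treated with an 11-point 3-fold dilution series (final top 0.1 or 1 μM) for 3 days at 37° C. After PFA fixation and Triton permeabilization, cells were immunostained with rabbit anti-BCL6 (1:300, overnight 4° C), Alexa-488 secondary, CellMask-647 and Hoechst, then imaged at 10×, 4 fields/well.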

[1] = T47D cells, 3 days compound treatment

What does the source list for `CNC(=O)COc1cc2cc(Nc3nc(N4CCC(OC5CCC6(CC5)CN(c5ccc(OC)c7c5CN(C5CCC(=O)NC5=O)C7=O)C6)CC4)ncc3Cl)ccc2n(C(C)C)c1=O` (stereo not drawn) [Compound 304, 2-{[6-({5-chloro-2-[4-({2-[2-(2,6-dioxopiperidin-3-yl)-7-methoxy-1-oxo-2,3-dihydro-1H-isoindol-4-yl]-2-azaspiro[3.5]nonan-7-yl}oxy)piperidin-1-yl]pyrimidin-4-yl}amino)-2-oxo-1-(propan-2-yl)-1,2-dihydroquinolin-3-yl]oxy}-N-methylacetamide]?
Dmax (T47D): 50 to 70%; DC50: < 10 nM

With `CNC(=O)COc1cc2cc(Nc3nc(N4CCC(CN5CCC6(CC5)CC5(CN(c7ccc8c(c7F)CN(C7CCC(=O)NC7=O)C8=O)C5)C6)CC4)ncc3Cl)ccc2n(C(C)C)c1=O` (stereo not drawn) [Compound 427] as the compound, how does the Dmax (T47D) read?
Its Dmax is no less than 70%.

And the DC50?
The DC50 was less than 10 nM.

For `CNC(=O)COc1cc2cc(Nc3nc(N4CCC(N5CCC56CN(C5CCN(c7ccc8c(c7)C(=O)N(C7CCC(=O)NC7=O)C8=O)CC5)C6)CC4)ncc3Cl)ccc2n(C(C)C)c1=O` (stereo not drawn) [Compound 220, 2-{[6-({5-chloro-2-[4-(6-{1-[2-(2,6-dioxopiperidin-3-yl)-1,3-dioxo-2,3-dihydro-1H-isoindol-5-yl]piperidin-4-yl}-1,6-diazaspiro[3.3]heptan-1-yl)piperidin-1-yl]pyrimidin-4-yl}amino)-2-oxo-1-(propan-2-yl)-1,2-dihydroquinolin-3-yl]oxy}-N-methylacetamide], which Dmax (T47D) is on record?
Its Dmax is 50 to 70%.

And the DC50?
Its DC50 is 10 to 50 nM.

For `CNC(=O)COc1cc2c(F)c(Nc3nc(N4CCC(O[C@H]5C[C@H](N6CCC(c7ccc8c(c7F)CN(C7CCC(=O)NC7=O)C8=O)CC6)C5)CC4)ncc3Cl)ccc2n(C(C)C)c1=O` (stereo partly drawn) [Compound 173], which DC50 [1] is on record?
The DC50 was less than 10 nM.

What about the Dmax [1] of the same compound?
The Dmax was no less than 70%.

`CNC(=O)COc1cc2c(F)c(Nc3nc(N4CCN(CC5CCC6(CC5)CN(c5cccc7c5C(=O)N(C5CCC(=O)NC5=O)C7=O)C6)CC4)ncc3Cl)ccc2n(C(C)C)c1=O` (stereo not drawn) [Compound 169, 2-{[6-({5-chloro-2-[4-({2-[2-(2,6-dioxopiperidin-3-yl)-1,3-dioxo-2,3-dihydro-1H-isoindol-4-yl]-2-azaspiro[3.5]nonan-7-yl}methyl)piperazin-1-yl]pyrimidin-4-yl}amino)-5-fluoro-2-oxo-1-(propan-2-yl)-1,2-dihydroquinolin-3-yl]oxy}-N-methylacetamide] was tested. Which DC50 [1] did it give?
The DC50 was less than 10 nM.

What about the Dmax [1] of the same compound?
The Dmax was no less than 70%.

For `CNC(=O)COc1cc2cc(Nc3nc(N4CCC(O[C@H]5C[C@H](N6CCC(c7ccc8c(c7F)CN([C@@H]7CCC(=O)NC7=O)C8=O)CC6)C5)CC4)ncc3Cl)ccc2n(C(C)C)c1=O` [Compound 384, 2-({6-[(5-chloro-2-{4-[(1r,3r)-3-(4-{2-[(3R)-2,6-dioxopiperidin-3-yl]-4-fluoro-1-oxo-2,3-dihydro-1H-isoindol-5-yl}piperidin-1-yl)cyclobutoxy]piperidin-1-yl}pyrimidin-4-yl)amino]-2-oxo-1-(propan-2-yl)-1,2-dihydroquinolin-3-yl}oxy)-N-methylacetamide], which Dmax (T47D) is on record?
The Dmax was 50 to 70%.

And the DC50?
The DC50 was less than 10 nM.

How did the DC50 [1] turn out when `CNC(=O)COc1cc2cc(Nc3nc(N4CCC(O[C@H]5C[C@H](N6CCC(c7cc8c(cc7OC(C)C)C(=O)N(C7CCC(=O)NC7=O)C8=O)CC6)C5)CC4)ncc3Cl)ccc2n(C(C)C)c1=O` (stereo partly drawn) [Compound 159, 2-[[6-[[5-chloro-2-[4-[3-[4-[2-(2,6-dioxo-3-piperidyl)-6-isopropoxy-1,3-dioxo-isoindolin-5-yl]-1-piperidyl]cyclobutoxy]-1-piperidyl]pyrimidin-4-yl]amino]-1-isopropyl-2-oxo-3-quinolyl]oxy]-N-methyl-acetamide] was run?
The DC50 was less than 10 nM.

And the Dmax [1]?
Its Dmax is no less than 70%.

How did the DC50 [1] turn out when `CNC(=O)COc1cc2cc(Nc3nc(N4CCC(O[C@H]5CC[C@H](Oc6cccc7c6C(=O)N(C6CCC(=O)NC6=O)C7=O)CC5)CC4)ncc3Cl)ccc2n(C(C)C)c1=O` (stereo partly drawn) [Compound 31, 2-[(6-{[5-chloro-2-(4-{[(1r,4r)-4-{[2-(2,6-dioxopiperidin-3-yl)-1,3-dioxo-2,3-dihydro-1H-isoindol-4-yl]oxy}cyclohexyl]oxy}piperidin-1-yl)pyrimidin-4-yl]amino}-2-oxo-1-(propan-2-yl)-1,2-dihydroquinolin-3-yl)oxy]-N-methylacetamide] was run?
The DC50 was less than 10 nM.

What about the Dmax [1] of the same compound?
Its Dmax is 50 to 70%.

For `CNC(=O)COc1cc2cc(Nc3nc(N4CCC(CN5CCC6(CN(c7ccc8c(c7)C(=O)N(C7CCC(=O)NC7=O)C8=O)C6)C(F)(F)C5)CC4)ncc3Cl)ccc2n(CCOC)c1=O` (stereo not drawn) [Compound 126, 2-{[6-({5-chloro-2-[4-({2-[2-(2,6-dioxopiperidin-3-yl)-1,3-dioxo-2,3-dihydro-1H-isoindol-5-yl]-5,5-difluoro-2,7-diazaspiro[3.5]nonan-7-yl}methyl)piperidin-1-yl]pyrimidin-4-yl}amino)-1-(2-methoxyethyl)-2-oxo-1,2-dihydroquinolin-3-yl]oxy}-N-methylacetamide], which DC50 [1] is on record?
The DC50 was less than 10 nM.

What about the Dmax [1] of the same compound?
The Dmax was less than 50%.

For `CNC(=O)COc1cc2cc(Nc3nc(N4CCC(O[C@H]5C[C@H](N6CCC(c7ccc8c(c7F)CN(C7CCC(=O)NC7=O)C8=O)CC6)C5)CC4)ncc3Cl)ccc2n(C2CCCC2)c1=O` (stereo partly drawn) [Compound 191, 2-({6-[(5-chloro-2-{4-[(1r,3r)-3-{4-[2-(2,6-dioxopiperidin-3-yl)-4-fluoro-1-oxo-2,3-dihydro-1H-isoindol-5-yl]piperidin-1-yl}cyclobutoxy]piperidin-1-yl}pyrimidin-4-yl)amino]-1-cyclopentyl-2-oxo-1,2-dihydroquinolin-3-yl}oxy)-N-methylacetamide], which DC50 [1] is on record?
The DC50 was less than 10 nM.

And the Dmax [1]?
The Dmax was no less than 70%.

Which DC50 [1] does the source give for `CNC(=O)COc1cc2cc(Nc3nc(N4CCC(OC5CN([C@H]6CC[C@H](c7ccc8c(c7Cl)CN(C7CCC(=O)NC7=O)C8=O)CC6)C5)CC4)ncc3Cl)ccc2n(C(C)C)c1=O` (stereo partly drawn) [Compound 185] here?
Its DC50 is less than 10 nM.

What about the Dmax [1] of the same compound?
Its Dmax is 50 to 70%.

`CNC(=O)COc1cc2cc(Nc3nc(N4CC(C)OC(C)C4)ncc3Cl)ccc2n(CCOc2ccc3c(c2)C(=O)N(C2CCC(=O)NC2=O)C3=O)c1=O` (stereo not drawn) [Compound 33, 2-[(6-{[5-chloro-2-(2,6-dimethylmorpholin-4-yl)pyrimidin-4-yl]amino}-1-(2-{[2-(2,6-dioxopiperidin-3-yl)-1,3-dioxo-2,3-dihydro-1H-isoindol-5-yl]oxy}ethyl)-2-oxo-1,2-dihydroquinolin-3-yl)oxy]-N-methylacetamide] was tested. Which DC50 [1] did it give?
The DC50 was 50 to 100 nM.

And the Dmax [1]?
The Dmax was less than 50%.

Which results are given for `CNC(=O)COc1cc2cc(Nc3nc(N4CCC5(CC4)CC(C(C)(C)N4CCC(c6cccc7c6CN(C6CCC(=O)NC6=O)C7=O)CC4)C5)ncc3Cl)ccc2n(C(C)C)c1=O` (stereo not drawn) [Compound 154, 2-{[6-({5-chloro-2-[2-(2-{4-[2-(2,6-dioxopiperidin-3-yl)-1-oxo-2,3-dihydro-1H-isoindol-4-yl]piperidin-1-yl}propan-2-yl)-7-azaspiro[3.5]nonan-7-yl]pyrimidin-4-yl}amino)-2-oxo-1-(propan-2-yl)-1,2-dihydroquinolin-3-yl]oxy}-N-methylacetamide]?
DC50 [1]: ≥ 100 nM; Dmax [1]: 50 to 70%

Which results are given for `CNC(=O)COc1cc2cc(Nc3nc(N4CCC(CN5CC6(CCN(c7cc8c(c(OC)c7)C(=O)N(C7CCC(=O)NC7=O)C8)CC6)C5)CC4)ncc3Cl)ccc2n(C(C)C)c1=O` (stereo not drawn) [Compound 115, 2-{[6-({5-chloro-2-[4-({7-[2-(2,6-dioxopiperidin-3-yl)-7-methoxy-1-oxo-2,3-dihydro-1H-isoindol-5-yl]-2,7-diazaspiro[3.5]nonan-2-yl}methyl)piperidin-1-yl]pyrimidin-4-yl}amino)-2-oxo-1-(propan-2-yl)-1,2-dihydroquinolin-3-yl]oxy}-N-methylacetamide]?
DC50 [1]: < 10 nM; Dmax [1]: 50 to 70%

What does the source list for `CNC(=O)COc1cc2cc(Nc3nc(N4CCC(OC5CCC6(CC5)CN(c5ccc(F)c7c5CN(C5CCC(=O)NC5=O)C7=O)C6)CC4)ncc3Cl)ccc2n(C(C)C)c1=O` (stereo not drawn) [Compound 312, 2-{[6-({5-chloro-2-[4-({2-[2-(2,6-dioxopiperidin-3-yl)-7-fluoro-1-oxo-2,3-dihydro-1H-isoindol-4-yl]-2-azaspiro[3.5]nonan-7-yl}oxy)piperidin-1-yl]pyrimidin-4-yl}amino)-2-oxo-1-(propan-2-yl)-1,2-dihydroquinolin-3-yl]oxy}-N-methylacetamide]?
Dmax (T47D): 50 to 70%; DC50: < 10 nM

With `CNC(=O)COc1cc2cc(Nc3nc(N4CCC(O[C@H]5C[C@H](N6CCC(c7ccc8c(c7C(F)(F)F)CN(C7CCC(=O)NC7=O)C8=O)CC6)C5)CC4)ncc3Cl)ccc2n(C(C)C)c1=O` (stereo partly drawn) [Compound 226, 2-({6-[(5-chloro-2-{4-[(1r,3r)-3-{4-[2-(2,6-dioxopiperidin-3-yl)-1-oxo-4-(trifluoromethyl)-2,3-dihydro-1H-isoindol-5-yl]piperidin-1-yl}cyclobutoxy]piperidin-1-yl}pyrimidin-4-yl)amino]-2-oxo-1-(propan-2-yl)-1,2-dihydroquinolin-3-yl}oxy)-N-methylacetamide] as the compound, how does the Dmax (T47D) read?
The Dmax was no less than 70%.

And the DC50?
Its DC50 is less than 10 nM.

How did the DC50 [1] turn out when `CNC(=O)COc1cc2c(F)c(Nc3nc(N4CCC(O[C@H]5C[C@H](N6CCN(c7ccc8c(c7C)C(=O)N(C7CCC(=O)NC7=O)C8=O)[C@H](C)C6)C5)CC4)ncc3Cl)ccc2n(C(C)C)c1=O` (stereo partly drawn) [Compound 199] was run?
Its DC50 is less than 10 nM.

What about the Dmax [1] of the same compound?
Its Dmax is no less than 70%.

With `CNC(=O)COc1cc2c(F)c(Nc3nc(N4CCC(F)(CN5CCC6(CC5)CN(c5ccc7c(c5)CN(C5CCC(=O)NC5=O)C7=O)C6)CC4)ncc3Cl)ccc2n(C(C)C)c1=O` (stereo not drawn) [Compound 389, 2-{[6-({5-chloro-2-[4-({2-[2-(2,6-dioxopiperidin-3-yl)-1-oxo-2,3-dihydro-1H-isoindol-5-yl]-2,7-diazaspiro[3.5]nonan-7-yl}methyl)-4-fluoropiperidin-1-yl]pyrimidin-4-yl}amino)-5-fluoro-2-oxo-1-(propan-2-yl)-1,2-dihydroquinolin-3-yl]oxy}-N-methylacetamide] as the compound, how does the Dmax (T47D) read?
The Dmax was no less than 70%.

What about the DC50 of the same compound?
The DC50 was less than 10 nM.
